Key:
[1] = system: BALB/c mouse spleen cells; assay: In vitro production of antibody (total IgG) in LPS-stimulated mouse spleen cells; format: cell-based; conditions: for Total IgG: LPS 5 μg/ml, 5 days
Experimental: Spleen cells from 7-week-old female BALB/c mouse were cultured at 37° C. in the presence of 5% CO2 for 5 days along with 5 μg/ml lipopolysaccharide (LPS) in RPMI 1640 medium containing 10% fetal bovine serum. After culture, the total amount of IgG in the supernatant was quantified by specific ELISA techniques.

human B lymphocytes = conditions: literature reports (Apfel 1992; Blomhoff 1992; Fahlman 1995); cited from earlier work
mouse B lymphocytes [2] = conditions: literature reports (Apfel 1992; Blomhoff 1992; Fahlman 1995); cited from earlier work
mouse B lymphocytes [3] = conditions: adding RARα antagonist; Apfel 1992; cited from earlier work
[4] = system: mouse allergic cerebrospinal meningitis; conditions: Racke et al., J. Immunol., 154, 450-458, 1995; cited from earlier work
rat adjuvant arthritis = conditions: Brinckerhoff et al., Science 221, 756, 1983; cited from earlier work
[5] = system: anti-rabbit γ-globulin IgG2a antibody titer; assay: Rat model producing antibody (anti-rabbit γ-globulin antibody titer in serum, ELISA); format: in vivo, Sprague-Dawley strain rats; conditions: dose 0.3 mg/kg oral once every day for 14 days; 14th day after immunization
Experimental: Sprague-Dawley strain rats were immunized by subcutaneously administering rabbit γ-globulin in a dose of 4 mg/rat along with Freund's complete adjuvant into the bottoms of their both hind legs. On the 14th day after the rats were immunized, blood was collected from their tail veins and examined for anti-rabbit γ-globulin antibody titer in serum by the ELISA method.
The test compounds A, B, C and D were suspended respectively in 0.5% aqueous methyl cellulose solution and orally administered once every day for 14 days from the day on which the animals were immunized with rabbit γ-globulin. The medium was administered into the control group.

[6] = system: accelerated Masugi nephritis; assay: Rat model with accelerated Masugi nephritis (proteins excreted in urine for 24 hours); format: in vivo, Sprague-Dawley strain rats; conditions: dose 0.3 mg/kg, oral once every day; compared with the control group; 0.3 mg/kg
Experimental: Sprague-Dawley strain rats were immunized by subcutaneously administering rabbit γ-globulin in a dose of 4 mg/rat along with Freund's complete adjuvant into the bottoms of their both hind legs. On the 5th day after the rats were immunized, 1 ml of anti-rat glomerular basement membrane rabbit serum diluted 6- or 8-fold was administered via tail veins into the animals. On the 8th day, the rats were forced to be orally administered 8 ml sterilized water and then placed in a metabolism cage, and their urine was collected for 24 hours during which the animals were allowed neither food nor water. As the indicator of the model with accelerated Masugi nephritis, the amount of proteins excreted in urine for 24 hours was used.
(§1) The medium was administered into the control group.

anti-ss DNA antibody = assay: Mouse model with spontaneous onset of SLE: production of anti-ss DNA antibody; format: in vivo, female (NZB×NZW) F1 mice; conditions: 0.03 mg/kg oral; after 16 weeks of administration
Experimental: (§2) In this experiment, female (NZB×NZW) F1 mice were used. Administration of each test compound was initiated at the age of 16 weeks, and blood was collected at predetermined intervals from the orbital venous plexus of the animals under anesthesia with ether and examined for anti-DNA (single-stranded chain: ss, double stranded chain: ds) antibody titer in serum. Further, urine was collected and measured for urine protein.
as §1

[7] = system: albuminuria in (NZB×NZW)F1 mice; assay: Mouse model with spontaneous onset of SLE: urine protein / onset of albuminuria; format: in vivo, female (NZB×NZW) F1 mice; conditions: dose 0.03 mg/kg
Excerpt: as §2
The test compounds A, B and D were suspended in 0.5% aqueous methyl cellulose solution and orally administered daily once into the animals for 6 days/week for 18 weeks. The medium was administered into the control group.
The effect of each compound on the onset of albuminuria after 18 weeks of administration (in 34-week-old animals) is shown in Table 2.

anti-ds DNA antibody = assay: Mouse model with spontaneous onset of SLE: production of anti-ds DNA antibody; format: in vivo, female (NZB×NZW) F1 mice; conditions: 0.03 mg/kg oral; after 16 weeks of administration
Experimental: as §2, §1

[8] = system: anti-collagen antibody titer; conditions: rat model with collagen arthritis; Kuwabara et al., FEBS Letters 1996; cited from earlier work
[9] = after 18 weeks of administration (34-week-old), 8 animals

CC1=C(/C=C/C(C)=C/C=C/C(C)=C/C(=O)O)C(C)(C)CCC1 [All-trans retinoic acid, all-trans-retinoic acid]
in vitro production of antibody in mice (in words) ([1]; 0.1 and 1 nM all-trans-retinoic acid): inhibited | Total IgG ([1]; all-trans retinoic acid 0.1 nM with Ro-41-5253 20 nM): 9.8 ng/mL | Total IgG ([1]; all-trans retinoic acid 0.1 nM with Ro-41-5253 200 nM): 26.4 ng/mL | Total IgG ([1]; all-trans retinoic acid 0.1 nM with Ro-41-5253 2000 nM): 23.4 ng/mL | Total IgG ([1]; all-trans retinoic acid 0.1 nM, Ro-41-5253 0 nM): 11.3 ng/mL | Total IgG ([1]; all-trans retinoic acid 1 nM with Ro-41-5253 20 nM): 6.4 ng/mL | Total IgG ([1]; all-trans retinoic acid 1 nM with Ro-41-5253 200 nM): 7.2 ng/mL | Total IgG ([1]; all-trans retinoic acid 1 nM with Ro-41-5253 2000 nM): 21.5 ng/mL | Total IgG ([1]; all-trans retinoic acid 1 nM, Ro-41-5253 0 nM): 7.3 ng/mL | polyclonal division of human B lymphocytes (human B lymphocytes): inhibits | polyclonal division of mouse B lymphocytes (mouse B lymphocytes [2]): inhibits

CCCCCCCOc1cc2c(cc1/C(C)=C/c1ccc(C(=O)O)cc1)C(C)(C)CCS2(=O)=O [Ro-41-5253]
recovery of the inhibitory action of retinoic acid on differentiation of mouse B lymphocytes (mouse B lymphocytes [3]): recovered almost perfectly | Total IgG ([1]; Ro-41-5253 20 nM, all-trans retinoic acid 0 nM): 29.2 ng/mL | Total IgG ([1]; Ro-41-5253 200 nM, all-trans retinoic acid 0 nM): 30.2 ng/mL | Total IgG ([1]; Ro-41-5253 2000 nM, all-trans retinoic acid 0 nM): 18.0 ng/mL | recovery of the inhibitory action of all-trans-retinoic acid on antibody production (in words) ([1]; adding 200 nM and 2000 nM Ro-41-5253): completely recovered

CC1=C(/C=C/C(C)=C/C=C/C(C)=C\C(=O)O)C(C)(C)CCC1 [13-cis-retinoic acid]
neural symptoms of mouse allergic cerebrospinal meningitis [4]: ameliorated | secondary inflammations in rat adjuvant arthritis (rat adjuvant arthritis): significantly suppressed

Cc1ccc(C)c2oc(-c3ccc(-c4ccc(C(=O)O)cc4)[nH]3)cc12 [Compound A, 4-{2-[5-(4,7-dimethylbenzofuran-2-yl)pyrrolyl]}benzoic acid]
effect on anti-rabbit γ-globulin IgG2a antibody titer [5]: showed a tendency to inhibit | Degree of Inhibition of Albuminuria (%) [6]: 69.2% | inhibition of production of anti-ss DNA antibody (in words) (anti-ss DNA antibody): significant inhibition | onset of albuminuria (in words) ([7]; after 18 weeks of administration): inhibited | Number of animals with Concentration of Urine Protein (mg/ml) <0.3 [7, 9]: 6 | Number of animals with Concentration of Urine Protein (mg/ml) >0.3 [7, 9]: 0 | Number of animals with Concentration of Urine Protein (mg/ml) >1 [7, 9]: 1 | Number of animals with Concentration of Urine Protein (mg/ml) >3 [7, 9]: 1 | Number of animals with Concentration of Urine Protein (mg/ml) >10 [7, 9]: 0 | inhibition of production of anti-ds DNA antibody (in words) (anti-ds DNA antibody): significant inhibition

CC1=C(/C=C/C(C)=C/C=C/C(C)=C/C(=O)Nc2ccc(O)cc2)C(C)(C)CCC1
neural symptoms of mouse allergic cerebrospinal meningitis [4]: ameliorated

CC1(C)CCC(C)(C)c2cc(NC(=O)c3ccc(C(=O)O)cc3)ccc21 [Am80]
production of anti-collagen antibody titer in blood [8]: strongly inhibited
